Experimental data published in US4514403A, “Hydrouracil compounds” (Yoshitomi Pharmaceutical Industries Ltd., priority 1980, dated 1985).
Structures can show the parent of a compound that is named as a salt.

Columns and labels:
[1] = test system: ventro-medial hypothalamus; conditions: compared with Test compound B; cited from earlier work
central nervous system = test: Activity on central nervous system; conditions: in vivo
[2] = test system: ventro-medial hypothalamus; test: Effect on the aggressive-defense reaction produced by electrical stimulation at the ventro-medial hypothalamus of cats; type: in vivo; conditions: for Threshold of current, Ear-flattening / Threshold of current, Growling / Threshold of current, Retreat with provocation / Threshold of current, Pupil dilatation: standard current = 100
Protocol: The latter used the double-walled cannula method which permitted electrical and chemical stimulation at the same locus in brain. H. Nakao et al. in "Integrative Control Functions of the Brain", vol. […] Similar studies have been done using serotonin by L. H. Allikmets in "Pavlov Journal of High Nervous Activity", 22, 597-602 (1972) and using chlorpromazine, haloperidol, pentobarbital and diazepam by H. Maeda in "Folia Psychiatrica et Neurologica Japonica", 30, 539-546 (1976).
Alternatively 30 mg/kg of Test compound B was injected subcutaneously.

in vivo = conditions: rat
Mouse jumping test = conditions: administration at a lethal dose
Electric stimuli test = conditions: for ED50: Mus musculus, read-out: Electric Stimuli Test ED50; for Electric Stimuli Test ED50: mice
[3] = Phenylquinone writhing test; conditions: for ED50: Mus musculus, read-out: Phenylquinone Writhing Test ED50; for Phenylquinone Writhing Test ED50: mice
Protocol: (§1) Phenylquinone writhing test, electric stimuli test, tooth pulp nociception test, hot plate test and AgNO3 arthritis test were performed according to the methods described by Y. Marayama et al. in "Arzneimittel-Forschung", 28 (11), 2102-2107 (1978), and bradykinin nociception test was performed by the method described by G. F. Blane in "Journal of Pharmacy and Pharmacology", 19, 367-373 (1967).

[4] = Bradykinin nociception test; conditions: for ED50: Rattus norvegicus, read-out: Bradykinin Nociception Test ED50; for Bradykinin Nociception Test ED50: rats
Tolerance test = type: in vivo; conditions: continuous administration
[5] = rats; withdrawal
[6] = test system: evoked potentials in central nervous system; test: Effect on the various evoked potentials in central nervous system; type: in vivo, Male Wistar rats; design: key to Amplitude of Evoked Responses, VP-COR / Amplitude of Evoked Responses, HIP-AMY / Amplitude of Evoked Responses, HIP-SEP: -: No change; --: No change; (+): Levallorphan antagonism; (-): Levallorphan antagonism
Protocol: Male Wistar rats, weighing 300-350 g, were used under ethyl ether anesthesia. The trachea and femoral vein were cannulated for artificial respiration and drug injection, respectively. Immobilization of the rat was maintained by gallamine thioethiodide (10 mg/kg) given intravenously every one hours. All wound edges were infiltration with carbocaine hydrochloride. The experiments began after at least 2 hours had elapsed from discontinuance of ether anesthesia. The COR (somatosensory cortex) evoked potentials by VP (neucleus ventralis posterior thalamus) stimulation (VP - COR evoked potential) were recorded from somatosensory cortex, through a silver electrode applied directly to the cortex. In order to record VP and MRF (midbrain reticular formation) evoked potentials by sciatic nerve stimulation or AMY (amygdala) and SEP (septum) evoked potentials by HIP (hippocampus) stimulation, bipolar stainless steel electrodes were stereotaxically placed into the VP, MRF, AMY, SEP and HIP. The stimuli were delivered to various sites every 2 seconds from a stimulation and consisted of 0.1 msec rectangular pulses (twice threshold intensity). The evoked responses were visualized on an oscilloscope. All records were made up of 20 superimposed tracings.

[7] = Tooth pulp nociception test; conditions: rabbit, in vivo, iv
Protocol: as §1

[8] = Antagonism by levallorphan in electric stimuli test; conditions: electric stimuli test in mice; levallorphan (narcotic antagonist)

Protocol for Hot plate test: as §1

Compound: CCCC(C)C1(CC)C(=O)NC(=O)NC1=O (stereo not shown) [pentobarbital]
- inhibition of threatening and rage reactions [1]: less active

Compound: O=C1CCN(C2CCN(CC=Cc3ccccc3)CC2)C(=O)N1 [Test compound B, 1-(1-cinnamyl-4-piperidyl)hydrouracil hydrochloride]
- muscle relaxant activity (central nervous system): did not show practically such activities
- reserpine potentiating activity (central nervous system): did not show practically such activities
- suppression of spontaneous locomotor activity (central nervous system): did not show practically such activities
- Threshold of current, Ear-flattening ([2]; 30 mg/kg s.c., 0 min): 100
- Threshold of current, Growling ([2]; 30 mg/kg s.c., 0 min): 100
- Threshold of current, Retreat with provocation ([2]; 30 mg/kg s.c., 0 min): 100
- Threshold of current, Ear-flattening ([2]; 30 mg/kg s.c., 70 min): 120
- Threshold of current, Growling ([2]; 30 mg/kg s.c., 70 min): 177
- Threshold of current, Retreat with provocation ([2]; 30 mg/kg s.c., 70 min): 142
- Threshold of current, Ear-flattening ([2]; 30 mg/kg s.c., 110 min): 105
- Threshold of current, Growling ([2]; 30 mg/kg s.c., 110 min): 184
- Threshold of current, Retreat with provocation ([2]; 30 mg/kg s.c., 110 min): 127
- duration for which the threshold of responses was raised ([2]; 30 mg/kg subcutaneously): over 2 hours
- rage behaviour with provocation by the experimenter ([2]; 30 mg/kg subcutaneously): did not show rage behaviour
- duration for which the threshold of current was raised ([2]; 10^-6 g in 0.5 μl through double-walled cannula): 60 min
- Threshold of current, Ear-flattening ([2]; 10^-6 g in brain, 0 min): 100
- Threshold of current, Growling ([2]; 10^-6 g in brain, 0 min): 100
- Threshold of current, Pupil dilatation ([2]; 10^-6 g in brain, 0 min): 100
- Threshold of current, Retreat with provocation ([2]; 10^-6 g in brain, 0 min): 100
- Threshold of current, Ear-flattening ([2]; 10^-6 g in brain, 5 min): 200
- Threshold of current, Growling ([2]; 10^-6 g in brain, 5 min): 200
- Threshold of current, Pupil dilatation ([2]; 10^-6 g in brain, 5 min): 200
- Threshold of current, Retreat with provocation ([2]; 10^-6 g in brain, 5 min): 180
- Threshold of current, Ear-flattening ([2]; 10^-6 g in brain, 20 min): 200
- breathing of the cat ([2]; during this experiment): normal
- threatening, rage and retreat reactions ([2]; electrical stimulation of ventro-medial hypothalamus): clearly suppressed
- LD50 (in vivo; ip): 150 mg/kg
- LD50 (in vivo; po): 1200 mg/kg
- LD50 (in vivo; sc): 500 mg/kg
- ED50 (Hot plate test; Rattus norvegicus, sc, read-out: Hot Plate Test ED50): 90 mg/kg
- jumping symptom (Mouse jumping test): did not cause any jumping symptom
- ED50 (AgNO3 arthritis test; Rattus norvegicus, sc, read-out: AgNO3 Arthritis Test ED50): 25 mg/kg
- ED50 (Electric stimuli test; po): 200 mg/kg
- ED50 (Electric stimuli test; sc): 40 mg/kg
- ED50 ([3]; po): 18 mg/kg
- ED50 ([3]; sc): 7.8 mg/kg
- ED50 ([4]; po): 100 mg/kg
- ED50 ([4]; sc): 10 mg/kg

Compound: COc1ccc2c3c1O[C@H]1[C@@H](O)C=C[C@H]4[C@@H](C2)N(C)CC[C@@]341 [Codeine, reference compound]
- tolerance (decrease of effects) (Tolerance test): caused a clear tolerance
- body weight reduction [5]: remarkably reduced

Compound: CCOC(=O)C1(c2ccccc2)CCN(C)CC1 [Pethidine, reference compound]
- Amplitude of Evoked Responses, HIP-SEP ([6]; 5 mg/kg i.v.): --
- Amplitude of Evoked Responses, VP-COR ([6]; 5 mg/kg i.v.): --
- Amplitude of Evoked Responses, HIP-SEP ([6]; 10 mg/kg i.v.): --

Compound: COc1cccc(C2(O)CCCCC2CN(C)C)c1 (stereo not shown) [Tramadol, reference compound]
- LD50 (in vivo; ip): 150 mg/kg
- LD50 (in vivo; po): 228 mg/kg
- LD50 (in vivo; sc): 300 mg/kg
- Hot Plate Test ED50 (Hot plate test; rats, s.c.): 50 mg/kg
- AgNO3 Arthritis Test ED50 (AgNO3 arthritis test; rats, s.c.): 17 mg/kg
- Electric Stimuli Test ED50 (Electric stimuli test; p.o.): 23 mg/kg
- Electric Stimuli Test ED50 (Electric stimuli test; s.c.): 12 mg/kg
- Phenylquinone Writhing Test ED50 ([3]; p.o.): 11 mg/kg
- Phenylquinone Writhing Test ED50 ([3]; s.c.): 1.5 mg/kg
- Tooth Pulp Nociception Test IT100 [7]: 5 mg/kg
- Bradykinin Nociception Test ED50 ([4]; p.o.): 50 mg/kg
- Bradykinin Nociception Test ED50 ([4]; s.c.): 70 mg/kg
- Influence of levallorphan on analgesic activity [8]: reduced

Compound: CN(C)CCCN1c2ccccc2Sc2ccc(Cl)cc21 [chlorpromazine]
- inhibition of threatening and rage reactions [1]: less active
